Source: PubChem BioAssay (NCI)
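Where inhibition never reached the appropriate level, the endpoint shown equals the highest concentration tested. Otherwise, values were interpolated linearly from a five-concentration, 48-hour dose response in 96-well plates. The concentration for 50% growth inhibition is given as GI50. The concentration for full growth arrest is given as TGI.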

Experiments:
Assay in all cases: inhibition of tumour cell growth, NCI panel, 48 h
[1] = test system: PC-3 prostate
[2] = test system: MDA-N
[3] = test system: DU-145 prostate
[4] = test system: SR leukemia
[5] = test system: MCF7 breast
[6] = test system: SF-539 CNS
[7] = test system: OVCAR-4 ovarian
[8] = test system: SNB-75 CNS
[9] = test system: SNB-19 CNS
[10] = test system: CAKI-1 renal
[11] = test system: NCI/ADR-RES ovarian

Row | Structure (SMILES) | TGI [1] [µM] | TGI [2] [µM] | TGI [3] [µM] | TGI [4] [µM] | TGI [5] [µM] | TGI [6] [µM] | TGI [7] [µM] | TGI [8] [µM] | TGI [9] [µM] | TGI [10] [µM] | TGI [11] [µM] | GI50 [1] [µM] | GI50 [3] [µM] | GI50 [4] [µM] | GI50 [5] [µM] | GI50 [6] [µM] | GI50 [7] [µM] | GI50 [8] [µM] | GI50 [10] [µM] | GI50 [11] [µM]
1 | N#CCCCC[N+]12CN3CN(CN(C3)C1)C2 | > 100 | > 100 | > 100 | > 100 | > 100 | 54 | > 100 | > 100 | > 100 | > 100 | > 100 | – | – | – | – | – | – | – | – | –
2 | CC(C)=CCNc1ncnc2nc[nH]c12 | > 100 | > 100 | > 100 | > 100 | > 100 | > 100 | > 100 | > 100 | > 100 | > 100 | > 100 | – | – | – | – | – | – | – | – | –
3 | Nc1c2c(=O)[nH]c(=O)c2c(N)c2c(=O)c3ccccc3c(=O)c12 | > 36.6 | 0.448 | 3.95 | – | 2.72 | 4.52 | 3.39 | – | > 57.4 | 22.9 | 5.9 | – | – | – | – | – | – | – | – | –
4 | O=C1c2ccccc2C(=O)c2c(Nc3ccc4c5c(cccc35)C(=O)c3ccccc3-4)cccc21 | > 100 | > 100 | > 100 | > 100 | – | – | > 100 | > 100 | > 100 | > 100 | > 100 | – | – | – | – | – | – | – | – | –
5 | N#CN=C(N)NC(=O)/C=C/C=C/c1ccc(Cl)cc1 | – | – | – | > 100 | – | 50.4 | > 100 | 54.8 | – | > 100 | – | – | – | – | – | – | – | – | – | –
6 | CSc1nc(Cl)c(Br)c(Sc2nc(N)nc3nc[nH]c23)n1 | – | – | – | 14.1 | – | 11.2 | 23.3 | 9.74 | 30.2 | 10.2 | – | – | – | – | – | – | – | – | – | –
7 | O=C(CSc1nc2ccccc2s1)c1sc2sc3ccccc3[n+]2c1[O-] | > 100 | > 100 | > 100 | > 100 | > 100 | > 100 | > 100 | – | > 100 | > 100 | > 100 | – | – | – | – | – | – | – | – | –
8 | COc1ccc(C(=O)Cn2c(C(=O)/C=C/c3ccco3)nc3ccccc32)cc1 | > 100 | > 100 | > 100 | > 100 | > 100 | > 100 | > 100 | > 100 | > 100 | – | 75.2 | – | – | – | – | – | – | – | – | –
9 | CN(C)c1ccc(/C=c2/c3ccccc3n3nc4ccccc4c23)cc1 | > 100 | 33.6 | > 100 | 25.1 | > 100 | 84.8 | – | 27.7 | > 100 | > 100 | > 100 | – | – | – | – | – | – | – | – | –
10 | O=c1ccc2nc(-c3ccccc3)nn(-c3ccccn3)c-2c1 | 35.7 | – | 30.7 | 18.5 | 5.88 | 30.8 | 3.19 | 26 | – | 2.84 | 67.1 | 13.2 | 15.5 | 2.97 | 2.13 | 16.2 | 1.67 | 13.2 | 1.5 | 19.6
11 | CC(=O)OC(C)C1C2=C(C(=O)CC1(C)O)C(=O)c1c(ccc(-c3ccc4c(c3O)C(=O)C3=C(C4=O)C(C(C)OC(C)=O)C(C)(O)CC3=O)c1O)C2=O (stereo not given) | 8.74 | 7.34 | 18.3 | 26.5 | 4.06 | 3.54 | 5.26 | 5.92 | 24 | 6.06 | 45.1 | – | – | – | – | – | – | – | – | –
12 | COc1ccc(C2CC(c3ccccc3)=Nc3c(-c4ccccc4)nnn32)cc1 (stereo not given) | > 100 | > 100 | > 100 | > 100 | > 100 | > 100 | – | – | > 100 | > 100 | > 100 | – | – | – | – | – | – | – | – | –
13 | O=C1CC(O)c2c(Br)sc(Br)c21 (stereo not given) | 25.9 | 22.5 | 22.2 | 29.6 | 15.5 | 21.5 | – | 29.8 | 34.9 | 4.24 | > 100 | – | – | – | – | – | – | – | – | –
14 | COc1ccc(C[C@H](N)C(=O)NC2C(CO)OC(n3cnc4c(N(C)C)ncnc43)C2O)cc1 (stereo not given in full) | – | – | – | 0.595 | – | – | 2.1 | 0.744 | – | – | – | – | – | – | – | – | – | – | – | –
15 | CC(=O)Nc1ccc(NC(=O)c2c(Cl)c(Cl)c(Cl)c(Cl)c2-c2nc3ccccc3[nH]2)cc1 | > 100 | > 100 | > 100 | > 100 | > 100 | > 100 | > 100 | > 100 | > 100 | > 100 | – | – | – | – | – | – | – | – | – | –
16 | Nc1nc(N)c2c(n1)NC(=O)c1c(c3ccccc3n1Cc1ccc(Cl)cc1)C2 | > 100 | 34.5 | 29.3 | – | 88.5 | 44.8 | 49.9 | 69.2 | > 100 | 34.5 | 85.6 | – | – | – | – | – | – | – | – | –
17 | CC(C)c1cc(CN(C)C)c(O)c(C(C)(C)C)c1 | 56.7 | 73.3 | > 100 | – | 30.1 | – | 99.1 | – | 53.4 | 53.8 | > 100 | – | – | – | – | – | – | – | – | –
18 | C=CC[N+]12CN3CN(CN(C3)C1)C2 | > 100 | 35.5 | 46.9 | – | > 100 | 40.6 | 52.9 | 48.1 | > 100 | 37.1 | 62.7 | – | – | – | – | – | – | – | – | –
19 | N=C(c1ccc2ccccc2c1)c1ccccc1Cc1ccccc1 | > 100 | > 100 | 96.6 | > 100 | > 100 | > 100 | > 100 | – | > 100 | > 100 | > 100 | – | – | – | – | – | – | – | – | –
20 | CC(C)(C)c1cc(C2NCCO2)cc(C(C)(C)C)c1O (stereo not given) | > 100 | > 100 | > 100 | > 100 | > 100 | > 100 | > 100 | 30.6 | – | > 100 | > 100 | – | – | – | – | – | – | – | – | –
21 | NC(=O)C(N)=O | – | – | – | > 100 | – | > 100 | – | – | > 100 | – | – | – | – | – | – | – | – | – | – | –
22 | CCOC(=O)C12CCC(=O)C=C1[C@@H](C)C(=O)CC2 (stereo not given in full) | – | – | – | > 100 | – | – | – | > 100 | – | – | – | – | – | – | – | – | – | – | – | –
23 | COc1ccc(-c2c(=O)[nH]n3c(=S)nc(-c4ccccc4)[nH]c23)cc1OC | 90.7 | 28.3 | 52.3 | 24.2 | 36.9 | – | 61.1 | 54 | 28.5 | 51.6 | 55.7 | – | – | – | – | – | – | – | – | –
24 | COc1cc(NC(C)=O)ccc1C(=O)N/N=C/c1ccc(Cl)cc1Cl | > 100 | 72.7 | > 100 | > 100 | > 100 | > 100 | 85.5 | 36.5 | > 100 | > 100 | > 100 | – | – | – | – | – | – | – | – | –
25 | CC(C)(C)N1C(C(=O)c2ccccc2)C1c1ccccc1 (stereo not given) | – | – | – | – | – | > 100 | > 100 | > 100 | > 100 | – | – | – | – | – | – | – | – | – | – | –
26 | C#CCOc1c(C(=O)OCC)c(=O)n(C)c2ccccc12 | – | – | – | – | – | > 100 | – | > 100 | > 100 | > 100 | – | – | – | – | – | – | – | – | – | –
27 | O=C(CNc1cccc([N+](=O)[O-])c1)Nn1c(-c2ccccc2)nc2ccccc2c1=O | 1.85 | – | 5.47 | – | 1.71 | 4.7 | – | – | 4.99 | – | 1.89 | – | – | – | – | – | – | – | – | –
